From patent US8461389B2, “Psycho-pharmaceuticals” (University College Dublin, National University of Ireland, …, priority 2008, dated 2013)

How the values were obtained:
C57B16 mice [1] = experiment: Open-field test; format: in vivo; conditions: 3 and 5 mg/kg i.p. once daily for 7 days; FIG. 3
From the text: The open field test is designed to measure behavioural responses such as locomotor activity, hyperactivity, and exploratory behaviors. Open field is also used as a measure of anxiety. Rats and mice tend to avoid brightly illuminated, novel, open spaces, so the open field environment acts as an anxiogenic stimulus and allows for measurement of anxiety-induced locomotor activity and exploratory behaviors. Like the elevated maze test described below, open field testing is a one trial test with little or no impact on the animal's subsequent behavior. The apparatus for the open field test was a square (100 cm by 100 cm) made of white Perspex. Each rat is placed in a corner of the field and its behavior recorded for five minutes. All activity is recorded by a video camera mounted above the open field and scored in real-time (or digitized and scored later) by the advanced motion-recognition software package Ethovision by Noldus, that detects and analyzes the movements of the rat or mouse. The total distance, average speed, rearing/elongation behavior, and time spent in various parts of the field (such as, for example, the border areas vs. the open, middle area) is measured and analysed. Testing is carried out in a temperature, noise and light controlled room.
The Experimental protocol employed in the behavioural evaluation of Captodiamine is outlined in FIG. 7. […]

C57B16 mice [2] = experiment: Forced swim test; format: in vivo; conditions: 3 and 5 mg/kg i.p.; FIGS. 10A and 10B
Procedure: • 1. Fill a 12 cm diameter glass cylinder to 10 cm with 22° C. water. • 2. Place two animals simultaneously in individual side-by-side cylinders separated by an opaque screen. • 3. Place mice in the cylinders for 6 minutes. • 4. Observe the behaviour of the mice for the last 4-minutes of the 6-minute experimental session. • 5. Sessions are videotaped and scored blind, Immobility is scored by summing the time spent immobile; movements necessary to maintain the animals head above water were not scored with data from treated groups compared with data from the control group using nonpaired Student's t tests (two tailed). • 6. Animals are dried with paper towels and heat lamps. FST in Rats: Habituation Session (Day 1) • 1. On Day 1, […] prior to testing, place the animals in the experimental room 60 min before the beginning of the habituation session. Randomly assign animals to a drug treatment, but give all animals within a cage the same treatment. Make food and water available throughout the experiment. • 2. Weigh two animals individually, then place one rat in each of the two cylinders (20 cm in diameter×40 cm high) containing water (25° C.) for 15 min (habituation session). No scoring of immobility is performed during the habituation session. […]
Values are expressed as mean±S.E.M (n=8). Statistical difference was determined using a Mann Whitney non-parametric U-test. […]

CCCCSc1ccc(C(SCCN(C)C)c2ccccc2)cc1 (stereo not drawn) [Captodiamine, 2-[(4-butylsulfanylphenyl)-phenyl-methyl]sulfanyl-N,N-dimethyl-ethanamin]
basal locomotion in the open-field paradigm (C57B16 mice [1]): no influence on basal locomotion
time spent in the centre of the open-field arena (C57B16 mice [1]): significantly more time in the centre
time to immobility in the forced swim test (C57B16 mice [2]): significant increase on time to immobility
